The source of these data is patent US20250066369A1, “BICYCLIC PHTHALAZIN-1(2H)-ONE DERIVATIVES AND RELATED USES” (NodThera Limited, priority 2022, published 2025).

The subject of one test is IL-1β release upon NLRP3 activation in peripheral blood mononuclear cells (PBMC). The experiment in a line: PBMC IC50 determination assay: inhibition of IL-1β release upon NLRP3 activation. Type of test: cell-based. As to conditions: PBMC primed with LPS 3 h, compound 30 min, stimulated with ATP (5 mM) or nigericin (10 μM) 1 h; IL-1β by ELISA (Protocol A) or HTRF (Protocol B). As to the method: PBMC IC50 determination assay. The compounds of the present disclosure were tested for their inhibitory activity against IL-1β release upon NLRP3 activation in peripheral blood mononuclear cells (PBMC).
Protocol A. PBMC were isolated from buffy coats by density gradient centrifugation on Histopaque-1077 (Sigma, cat no. 10771). Isolated cells were seeded into the wells of a 96-well plate and incubated for 3 h with lipopolysaccharide (LPS). Following medium exchange, the compounds of the present disclosure were added (a single compound per well) and the cells were incubated for 30 min. Next, the cells were stimulated either with ATP (5 mM) or nigericin (10 μM) for 1 h and the cell culture media from the wells were collected for further analysis.
The release of IL-1β into the media was determined by a quantitative detection of IL-1β in the media using an IL-1β enzyme-linked immunosorbent assay (ELISA) Ready-SET-Go!, eBioscience cat. No. 88-7261-88. Briefly, in a first step, high affinity binding plates (Corning, Costar 9018 or NUNC Maxisorp Cat No. 44-2404) were coated overnight at 4° C. with specific capture antibody included in the kit (anti-human IL-1β ref. 14-7018-68). Subsequently, plates were blocked with blocking buffer for 1 h at room temperature (rt) and after washing with a buffer (PBS with 0.05% Tween-20) incubated with protein standard and culture media. After 2 h of incubation at rt, plates were washed and incubated with biotinylated detection antibody included in the kit (anti-human IL-1β Biotin ref 33-7110-68) for 1 h at rt. Plates were washed and incubated with HRP-streptavidin for 30 min at rt and washed again. The signal was developed after addition of 3,3′,5,5′-tetramethylbenzidine-peroxidase (TMB) until colour appeared and the reaction was stopped by 2 M H2SO4. A microplate spectrophotometer (BioTek) was used to detect signals with 450 nm. The detection range of IL-1β ELISA was […].
Protocol B. PBMC were isolated from buffy coats by density gradient centrifugation on Histopaque-1077 (Sigma, cat no. 10771). Isolated cells were seeded into the wells (280,000 cells/well) of a 96-well plate and incubated for 3 h with lipopolysaccharide (LPS, 1 μg/mL diluted 1000× from a 1 mg/mL stock solution). The compounds of the present disclosure were added (a single compound per well) and the cells were incubated for 30 min. Next, the cells were stimulated with ATP (5 mM final concentration diluted 20× from a 100 mM stock solution) for 1 h and the cell culture media from the wells were collected for further analysis.
The release of IL-1β into the media was determined by quantitative detection of IL-1β in the media using HTRF®, CisBio cat. No. 62HIL1BPEH. Briefly, cell culture supernatant were dispensed directly into the assay plate containing antibodies labelled with the HTRF® donor and acceptor. A microplate spectrophotometer (BMG) was used to detect signals at 655 nm and 620 nm. The detection range of IL-1β HTRF® was 39-6500 μg/mL.
(In an ELISA, binding on a coated surface is turned into a signal by an enzyme label.)
The compound `CC(C)c1nn(C2(C(=O)Nc3ncccn3)CC2)c(=O)c2cn(C3CC3)nc12` [Compound 70, 1-(2-Cyclopropyl-7-isopropyl-4-oxo-2,4-dihydro-5H-pyrazolo[3,4-d]pyridazin-5-yl)-N-(pyrimidin-2-yl)cyclopropane-1-carboxamide] yielded a 50% inhibitory concentration (IC50) of 10000 to 50000 nM.

Staying with this test, now noted: PBMC, PBMC primed with LPS 3 h, compound 30 min, stimulated with ATP (5 mM) or nigericin (10 μM) 1 h; IL-1β by ELISA (Protocol A) or HTRF (Protocol B).
Turning to `CCOC(=O)Cc1cnc(NC(=O)Cn2nc(C)c3oc(C4CC4)cc3c2=O)nc1` [Compound 92, Ethyl 2-[2-(2-{2-cyclopropyl-7-methyl-4-oxo-4H,5H-furo[2,3-d]pyridazin-5-yl}acetamido)pyrimidin-5-yl]acetate], the IC50 lay in the range of 100 to 1000 nM.
Still for that read-out and setting: under `CCOC(=O)c1cnc(NC(=O)Cn2nc(C(C)C)c3oc(C4CC4)cc3c2=O)nc1` [Compound 80, Ethyl 2-(2-(2-cyclopropyl-7-isopropyl-4-oxofuro[2,3-d]pyridazin-5(4H)-yl)acetamido)pyrimidine-5-carboxylate] stands 100 to 1000 nM.
Compound `Cc1nn(CC(=O)Nc2ccc3nncn3n2)c(=O)c2cc(C3CC3)oc12` [Compound 106, 2-{2-Cyclopropyl-7-methyl-4-oxo-4H,5H-furo[2,3-d]pyridazin-5-yl}-N-{[1,2,4]triazolo[4,3-b]pyridazin-6-yl}acetamide] had a half-inhibitory concentration (IC50) of 100 to 1000 nM.
Compound `Cc1cnc(NC(=O)Cn2nc(C)c3oc(C4CC4)cc3c2=O)nc1` [Compound 83, 2-{2-Cyclopropyl-7-methyl-4-oxo-4H,5H-furo[2,3-d]pyridazin-5-yl}-N-(5-methylpyrimidin-2-yl)acetamide] returned an IC50 of 100 to 1000 nM.
Still for that read-out and setting: under `CCc1nn(CC(=O)Nc2ncccn2)c(=O)c2cn(CC)nc12` [Compound 21, 2-(2,7-Diethyl-4-oxo-pyrazolo[3,4-d]pyridazin-5-yl)-N-pyrimidin-2-yl-acetamide] stands 10000 to 50000 nM; under `COCCNc1cc2c(C(C)C)nn(CC(=O)Nc3ncccn3)c(=O)c2s1` [Compound 96, 2-{2-[(2-Methoxyethyl)amino]-7-oxo-4-(propan-2-yl)-6H,7H-thieno[2,3-d]pyridazin-6-yl}-N-(pyrimidin-2-yl)acetamide], 10000 to 50000 nM.
Consider `CCc1nn(CC(=O)Nc2ncccn2)c(=O)c2ccc(C3CC3)nc12` [Compound 32, 2-(2-Cyclopropyl-8-ethyl-5-oxo-pyrido[2,3-d]pyridazin-6-yl)-N-pyrimidin-2-yl-acetamide], for which the half-inhibitory concentration (IC50) was in the range of 100 to 1000 nM.
In the case of `CC(C)c1nn(CC(=O)NC2CC3(COC3)C2)c(=O)c2cnc(C3CC3)cc12` [Compound 18, 2-(7-Cyclopropyl-1-isopropyl-4-oxo-pyrido[3,4-d]pyridazin-3-yl)-N-(2-oxaspiro[3.3]heptan-6-yl)acetamide], the IC50 lay in the range of 10000 to 50000 nM.
Compound `CCc1nn(CC(=O)Nc2ncccn2)c(=O)c2sc(NC)cc12` [Compound 114, 2-[4-ethyl-2-(methylamino)-7-oxo-6H,7H-thieno[2,3-d]pyridazin-6-yl]-N-(pyrimidin-2-yl)acetamide] returned a 50% inhibitory concentration (IC50) of 100 to 1000 nM.
The same measure, in the same setting: under `CC(C)c1nn(CC(=O)Nc2ncc(F)cn2)c(=O)c2sc(Cl)cc12` [Compound 60, 2-(2-Chloro-4-isopropyl-7-oxothieno[2,3-d]pyridazin-6(7H)-yl)-N-(5-fluoropyrimidin-2-yl)acetamide] stands 100 to 1000 nM; under `CCNc1cc2c(C(C)C)nn(CC(=O)Nc3ncccn3)c(=O)c2s1` [Compound 78, 2-(2-(Ethylamino)-4-isopropyl-7-oxothieno[2,3-d]pyridazin-6(7H)-yl)-N-(pyrimidin-2-yl)acetamide], not above 100 nM; under `CC(C)c1nn(CC(=O)N[C@@H]2CCCN(C3CCC3)C2)c(=O)c2sc(Br)cc12` [Compound 29, 2-(2-Bromo-4-isopropyl-7-oxo-thieno[2,3-d]pyridazin-6-yl)-N-[(3R)-1-cyclobutyl-3-piperidyl]acetamide], 100 to 1000 nM.
Still for that read-out and setting: under `CC(C)c1nn(CC(=O)Nc2ncccn2)c(=O)c2cc(Br)oc12` [Compound 62, 2-(2-Bromo-7-isopropyl-4-oxofuro[2,3-d]pyridazin-5(4H)-yl)-N-(pyrimidin-2-yl)acetamide] stands 100 to 1000 nM.
On the same count and under the same terms, under `Cc1nn(CC(=O)Nc2ncccn2)c(=O)c2ccc(C3CC3)nc12` [Compound 34, 2-(2-Cyclopropyl-8-methyl-5-oxo-pyrido[2,3-d]pyridazin-6-yl)-N-pyrimidin-2-yl-acetamide] stands 1000 to 3000 nM.
Compound `CCc1cc2c(=O)n(CC(=O)Nc3ncc(F)cn3)nc(C(C)C)c2s1` [Compound 12, 2-(2-Ethyl-7-isopropyl-4-oxo-thieno[2,3-d]pyridazin-5-yl)-N-(5-fluoropyrimidin-2-yl)acetamide] registered an IC50 of 100 to 1000 nM.
For `Cc1nn(CC(=O)Nc2ncc(C#N)cn2)c(=O)c2cc(C3CC3)oc12` [Compound 91, N-(5-Cyanopyrimidin-2-yl)-2-{2-cyclopropyl-7-methyl-4-oxo-4H,5H-furo[2,3-d]pyridazin-5-yl}acetamide], the IC50 fell in the range of 100 to 1000 nM.
Still for that read-out and setting: under `CC(C)c1nn(CC(=O)N[C@H]2C[C@@](C)(O)C2)c(=O)c2cn(C(C)C)nc12` [Compound 68, 2-(2,7-Diisopropyl-4-oxo-2,4-dihydro-5H-pyrazolo[3,4-d]pyridazin-5-yl)-N-((cis)-3-hydroxy-3-methylcyclobutyl)acetamide] stands 1000 to 3000 nM; under `CCc1cc2c(=O)n(CC(=O)Nc3ncccn3)nc(CC)c2o1` [Compound 54, 2-(2,7-Diethyl-4-oxofuro[2,3-d]pyridazin-5(4H)-yl)-N-(pyrimidin-2-yl)acetamide], 100 to 1000 nM; under `CCc1nn(CC(=O)Nc2ncco2)c(=O)c2sc(NC)cc12` [Compound 115, 2-[4-Ethyl-2-(methylamino)-7-oxo-6H,7H-thieno[2,3-d]pyridazin-6-yl]-N-(1,3-oxazol-2-yl)acetamide], 100 to 1000 nM.
On to `CC(C)c1nn(CC(=O)Nc2ncco2)c(=O)c2cc(C3CC3)oc12` [Compound 79, 2-(2-Cyclopropyl-7-isopropyl-4-oxofuro[2,3-d]pyridazin-5(4H)-yl)-N-(oxazol-2-yl)acetamide], for which the IC50 was 100 to 1000 nM.
`CC(C)c1nn(CC(=O)NC2CC3(COC3)C2)c(=O)c2ccc(C3CC3)nc12` [Compound 25, 2-(2-Cyclopropyl-8-isopropyl-5-oxo-pyrido[2,3-d]pyridazin-6-yl)-N-(2-oxaspiro[3.3]heptan-6-yl)acetamide] returned a concentration for half-maximal inhibition (IC50) of 1000 to 3000 nM.
Still for that read-out and setting: under `CCn1cc2c(=O)n(CC(=O)Nc3ncccn3)nc(CF)c2n1` [Compound 40, 2-(2-Ethyl-7-(fluoromethyl)-4-oxo-2,4-dihydro-5H-pyrazolo[3,4-d]pyridazin-5-yl)-N-(pyrimidin-2-yl)acetamide] stands 1000 to 3000 nM; under `Cc1cnc(NC(=O)Cn2nc(C(C)C)c3nn(C(C)C)cc3c2=O)nc1` [Compound 63, 2-(2,7-Diisopropyl-4-oxo-pyrazolo[3,4-d]pyridazin-5-yl)-N-(5-methylpyrimidin-2-yl)acetamide], 100 to 1000 nM; under `Cc1nn(CC(=O)Nc2ncco2)c(=O)c2cc(C3CC3)oc12` [Compound 87, 2-{2-cyclopropyl-7-methyl-4-oxo-4H,5H-furo[2,3-d]pyridazin-5-yl}-N-(1,3-oxazol-2-yl)acetamide], 1000 to 3000 nM.
The same measure, in the same setting: under `CC(C)c1nn(CC(=O)Nc2ncc(F)cn2)c(=O)c2ccc(C3CC3)nc12` [Compound 28, 2-(2-Cyclopropyl-8-isopropyl-5-oxo-pyrido[2,3-d]pyridazin-6-yl)-N-(5-fluoropyrimidin-2-yl)acetamide] stands 100 to 1000 nM; under `CCc1cc2c(=O)n(CC(=O)Nc3ncc(F)cn3)nc(C(C)C)c2o1` [Compound 23, 2-(2-Ethyl-7-isopropyl-4-oxo-furo [2,3-d]pyridazin-5-yl)-N-(5-fluoropyrimidin-2-yl) acetamide], 100 to 1000 nM; under `CC(C)c1nn(C2(C(=O)Nc3ncc(F)cn3)CC2)c(=O)c2cn(C(C)C)nc12` [Compound 51, 1-(2,7-Diisopropyl-4-oxo-2,4-dihydro-5H-pyrazolo[3,4-d]pyridazin-5-yl)-N-(5-fluoropyrimidin-2-yl)cyclopropane-1-carboxamide], 100 to 1000 nM.

A word on the IC50: it is the point on the concentration scale where inhibition reaches its midpoint. A higher IC50 goes with lower potency.
